Row | melting point [°C] | SMILES
1 | 114 to 116 | Cc1c(-c2ccc(F)cc2)n(Cc2ccc(OCCBr)cc2)c2ccc(OCc3ccccc3)cc12
2 | 233 to 236 | CN1C(=O)CC[C@]2(C)c3ccc(C=Cc4ccc5ccccc5n4)cc3CC[C@@H]12
3 | 110 | CCC1=NNC(C)=C(C(=O)OC2CCCC2)C1c1cccc([N+](=O)[O-])c1 (stereo not drawn)
4 | 84 | CCC(=O)Oc1ccc2c(=O)c(C(=O)CC)c(CC)oc2c1
5 | 110 to 112 | CCc1c(Cc2ccccc2)oc2c(C(=O)NCCCN3CCN(c4ccccc4OC)CC3)cccc12
6 | 96 to 99 | CS(=O)(=O)c1ccc(-c2[nH]nc(OC3CCCC3=O)c2-c2ccc(F)cc2)cc1 (stereo not drawn)
7 | 266 to 267 | COc1ccc2c(=O)[nH]c(-c3ccc(OCCO)c(-c4ccc(S(C)=O)cc4)n3)nc2c1 (stereo not drawn)
8 | 53 | COc1ccc(CN2C(=O)C(C)(c3cc(COCCO)ccc3Cl)c3cc(Cl)ccc32)c(OC)c1 (stereo not drawn)
9 | 298 to 299 | NC(=O)c1cc(Br)ccc1Nc1ccncc1
10 | 77 | CC/C(=C\CCC(O)(CC)CC)c1ccc(CCc2ccc(CO)c(CO)c2)s1
11 | 156 to 158 | CCC(C(=O)O)N(C(=O)c1cn(-c2cccc(C(F)(F)F)c2)nc1C)c1ccc(OCC(C)(C)C)c(C#N)c1 (stereo not drawn)
12 | 100 | CS(=O)(=O)C(Cl)=C(Cl)C#N
13 | > 260 | N#Cc1cnc2c(Br)cccc2c1O
14 | 44 to 47 | Nn1cccc1C(=O)c1ccccc1F
15 | 113 to 115 | Cc1sc2c(c1C(=O)CCCCl)C(=O)NCCC2
16 | 174 | O=c1c(CCCc2cccnc2)cc2cccnc2n1-c1ccc2nsnc2c1
17 | 198 | CCn1c(=O)c2c(nc(/C=C/c3ccc(OC(C)=O)cc3)n2C)n(CC)c1=O
18 | 160 to 170 | CCOC(=O)c1cc(-c2ccc(OCc3ccccc3)cc2)n[nH]1
19 | 123 to 125 | COc1cccc(NC(=O)N=C2CCCN2C)c1
20 | > 300 | O=C(NCc1ccn(-c2cc3nc(C(=O)O)c(=O)[nH]c3cc2C(F)(F)F)c1)Nc1ccccc1
21 | 207 to 209 | COc1ccc(OC)c(NC(=O)c2cc(Br)ccc2O)c1
22 | 203 to 205 | CCOC(=O)c1cn(-c2ccc(F)cn2)c2c(F)c(F)c(F)cc2c1=O
23 | 150 to 152 | COCOc1ccc(-n2cc(C(=O)O)c(=O)cc2-c2ccc(N(C)C)cc2)cc1
24 | 63 to 64 | Cc1cc(Cl)cnc1N
25 | 202 to 203 | CC(=O)NC[C@H]1CN(c2ccc(N3CCS(=O)(=O)CC3)c(F)c2)C(=O)O1

Row | melting point [°C] | SMILES
26 | 280 to 295 | Cc1[nH]c(=O)c2ccccc2c1CC(=O)O
27 | 192 to 194 | CCCCNc1nc(-c2cc(OC)c(OC)c(OC)c2)nc2sc(C#N)c(C)c12
28 | 206 | COC(=O)c1nc2nccc(S)n2n1
29 | 127 to 128 | COc1cccc(-c2coc3ccc(-c4nnc(C)o4)cc23)c1
30 | 41 to 44 | CC(C)OC(=O)C1C(=S)NCC1C (stereo not drawn)
31 | 54 to 56 | C=C(C)C(=O)OCCCCOC(=O)/C=C/c1ccc(OC(=O)OCC)cc1
32 | 128 to 130 | Cc1ccc2c3c(c(=O)oc2c1)CNCC3
33 | 180 to 182 | Cc1cc(F)cc(-c2ccc3c(c2)C2(C=N3)CCCCC2)c1
34 | 156 to 158 | C[C@H](NC(=O)C[C@@H](CCBr)c1ccc(F)cc1)c1ccccc1
35 | 90 | S=C(N1CCCCC1)C1(c2ccccn2)CCCS1 (stereo not drawn)
36 | 143 to 146 | O=C(Nc1ccc(F)cc1)c1ccc([N+](=O)[O-])cc1
37 | 152 to 154 | O=C(O)COc1cc2c(-c3ccccc3)csc2c(Cl)c1Cl
38 | 250 | N#CN1CCC(C2(O)c3ccccc3CCc3ccc(F)cc32)CC1 (stereo not drawn)
39 | 216 to 220 | O=C(O)CN(CCCCC(C(=O)O)N(CC(=O)O)CC(=O)O)CC(=O)O (stereo not drawn)
40 | 188 to 190 | COc1ccc2nc(COc3ccc(CC(SC)C(N)=O)cc3)n(C)c2c1 (stereo not drawn)
41 | 131 to 133 | Cn1nc2c(c1-c1ccc(Cl)cc1)Cc1ccccc1-2
42 | 198 to 199 | CCCc1ccccc1OCCCOc1ccc2c(=O)cc(C(=O)O)oc2c1CC
43 | 132 to 133 | CCc1nn2c(-c3cccnc3)ccnc2c1Cl
44 | 127 to 128 | CC(CCCC(C)(C)O)C1CCC2C3CC=C4CCCC(O)C4(C)C3CCC12C (stereo not drawn)
45 | 131 to 132 | COC(=O)c1cc(CO)ccc1OCc1nc(-c2ccco2)oc1C
46 | 177 to 190 | CNC(=O)c1ccccc1Nc1nc(Nc2ccc3c(c2)CCN(CC(F)(F)F)CC3)ncc1Cl
47 | 143 to 146 | CCCc1nn(C)c2c(=O)[nH]c(-c3ccccc3OCC)nc12
48 | 135 | CC(O)C(NC(=O)OCc1ccccc1)C(=O)NN (stereo not drawn)
49 | 145 to 146 | CC(=O)N1CCC(O)(c2ccccc2C)CC1
50 | 242 to 243 | COc1ccc(-c2cnc(N3CCc4c([nH]c5ccccc45)C3C3Cc4ccccc4O3)nc2)cc1 (stereo not drawn)

Row | melting point [°C] | SMILES
51 | 69 to 71 | OC1Cc2ccccc2Sc2cc(F)c(Cl)cc21 (stereo not drawn)
52 | 180 to 184 | O=C1c2cc(Br)cc(Br)c2CCC1n1ccnc1 (stereo not drawn)
53 | 217 to 219 | CC(=O)NC12Oc3c(C(C)C)cc(C(C)C)cc3C1(O)C(=O)c1ccccc12 (stereo not drawn)
54 | 150 to 151 | CS(=O)(=O)Nc1ccc(OCC2CCN(C(=O)OCc3ccccc3)CC2)cc1
55 | 236 to 238 | CC(=O)O[C@H]1[C@H](NC(C)=NC#N)c2cc(C#N)ccc2OC1(C)C (relative stereo)
56 | 87 to 89 | CCC(C)(C)NC(=O)c1cnc2cccc(C)n2c1=O
57 | 137 to 141 | CCCCNC(=O)Oc1ccc2c(N3CCN(CCCC(=O)c4ccc(F)cc4)CC3)noc2c1
58 | > 200 | CC(C)(C)OC(=O)N1CC(CCl)c2c1cc(N)c1ccccc21 (stereo not drawn)
59 | 168 to 169 | CCOc1ccc(-c2ncc[nH]2)cc1
60 | 203 | COc1ccc(CNc2nc(N3CCC(C(=O)O)CC3)nc3sc(C(F)(F)F)cc23)cc1OC
61 | 81 to 83 | CC(C)(CNC(=O)COCC(=O)O)SN=O
62 | 190 | Oc1ccc2c(C3CCCCC3)nsc2c1
63 | 149 to 150 | CCn1ncc2c1ncc1c(OCCN(C)C)nc3ncnn3c12
64 | 184 to 187 | CCCc1nc2c(N)nc3cc(F)ccc3c2o1
65 | 228 to 229 | CCOc1cc(C)nc2nc(S(=O)(=O)Nc3c(Cl)ccc(C)c3Cl)nn12
66 | 185 to 186 | CC1(C)SC(c2ccccc2C(=O)O)NC1C(=O)O (stereo not drawn)
67 | 129 to 130 | Cc1c(CO)sc2c(Br)cccc12
68 | 205 | CC(C)(C)C(=O)Oc1cc(C(=O)OCC[Si](C)(C)C)cc2oc(-c3ccccc3)cc(=O)c12
69 | 57 to 60 | Cc1nc2ccc(C(C)(C)CNC=O)cc2[nH]1
70 | 98 to 100 | CCCCCCCCCCCCS(=O)CCOc1ccc(CCC(=O)C(F)(F)F)cc1 (stereo not drawn)
71 | 152 to 154 | COc1ccc(-c2cn(-c3ccc(C(F)(F)F)cc3F)nn2)cc1
72 | 136 | CCOC(=O)c1c(C(F)(F)F)nc(-c2cccs2)c(-c2ccccc2)c1O
73 | 118 to 120 | Cc1cc2c(cc1OCCn1ccnc1)CCCC2=O
74 | 139 to 140 | O=CN(O)C(CCCO)CS(=O)(=O)c1ccc(-c2ccc(C(F)(F)F)cc2)cc1 (stereo not drawn)
75 | 83 to 85 | CCC(C(=O)N(C)C)n1cc(C)c(-c2cccs2)n1 (stereo not drawn)

Row | melting point [°C] | SMILES
76 | 106 to 111 | CCCCNC1CC(C)(C)N(CCO)C(C)(C)C1
77 | 130 to 131 | c1ccc(C(CCOc2ccc(CCC3=NCCO3)cc2)(c2ccccc2)c2ccccc2)cc1
78 | 144 | CN(C)c1ccc2c(c1)SC1=NCCN12
79 | 167 to 169 | CCCCc1nc2c(N)nc3ccc(OCC(=O)N(C)Cc4ccccc4)cc3c2n1C
80 | 217 to 223 | CC(C(=O)O)(c1ccc(N2CCOCC2)cc1)c1ccc(N2CCOCC2)cc1
81 | 168 to 170 | COc1ccc2c(c1)C(OC(C)C)=C(C(N)=O)S2=O (stereo not drawn)
82 | 179 to 181 | CC1=C(C(=O)OC(C)C)C(c2cccc(Cl)c2Cl)N(C(=O)OC(C)C)C(=S)N1 (stereo not drawn)
83 | 125 to 128 | O=c1oc2ccccc2c2c1CNCC2
84 | 95.5 to 97.5 | COC(=O)CC1CCN(CCC=C(c2ccccc2)c2ccccc2)C1 (stereo not drawn)
85 | 81 to 83 | OCCOc1cccc(-n2ccnc2)c1
86 | 121 to 123 | Nc1cnc2ccsc2c1
87 | 148 to 150 | CSCCC(C)NC(=O)c1c(I)cccc1C(=O)O (stereo not drawn)
88 | 192 to 194 | CCC1c2ccc(C=O)n2-c2ccc(F)cc2N1S(=O)(=O)c1ccc(O)c(C)c1 (stereo not drawn)
89 | 125 | CSCCn1c2ccc(C)cc2c(=O)c2c1cnn2C
90 | 218 to 219 | CC(=O)c1cccc(C(=O)NC(Nc2c(Nc3cccnc3)c(=O)c2=O)C(C)(C)C)c1 (stereo not drawn)
91 | 185 to 186 | Cc1nnc(-c2ccc3occ(-c4cc(F)ccc4F)c3n2)o1
92 | 108 to 110 | CC(C)COc1c(-c2ccc(S(C)(=O)=O)cc2)cnn(CC(F)(F)F)c1=O
93 | 120 to 121 | CC(C)(C)OC(=O)N1CCCC(Nc2cc(-c3ccc(F)c(NC(=O)c4cnc(C(C)(C)C)cn4)c3)n[nH]c2=O)C1 (stereo not drawn)
94 | 138 to 140 | COc1ccc(C[C@H](NC(=O)OCc2ccccc2)C(=O)N2CCN(CC(=O)OC(C)(C)C)C(=O)[C@@H]2CCCNC(=O)OCc2ccccc2)cc1
95 | 190 to 194 | CCCN(CCC)C1Cc2cc3c(cc2C1)C(=O)N(Cc1ccc(S(N)(=O)=O)cc1)C3=O
96 | 124 to 125 | COC(=O)Cc1ccc(CN2CCN(C(c3ccccc3)c3ccccc3)CC2)cc1
97 | 104 | Cc1c(C)c2ccc(OCCCc3ccccc3)cc2oc1=O
98 | 246 to 256 | COc1ccccc1Cc1ccc(-c2cnn3c(O)ncnc23)cc1

Row | SMILES | melting point [°C]
99 | C1=C(c2ccccc2)CCN(CC2CCC=C(c3ccccc3)C2)C1 (stereo not drawn) | 94 to 100
100 | CCOC(=O)CCN1C(=O)C(NC(=O)OCc2ccccc2)N=C(c2ccccc2)c2ccccc21 (stereo not drawn) | 57 to 59
101 | COc1c(C(=O)NC2CN3CCC2CC3)cc(Cl)c2c1CCN2 (stereo not drawn) | 107 to 109
102 | CC(=CC(=O)O)c1cccc(-c2cc3c(cc2C)C(C)(C)CCC3(C)C)c1 | 89 to 90
103 | C[Si](C)(C)NC(=O)C(Cl)(Cl)Cl | 75 to 85
